Usually IC50 stands for the concentration needed to halve the response being measured.

Data on 13 compounds can be found in patent publication US20240218022A1, “ANTI-VISTA MACROCYCLIC PEPTIDES AND COMPOSITIONS” (BRISTOL-MYERS SQUIBB COMPANY, priority 2022, published 2024).

Read-outs that look alike come from different tables or passages of the source. Starred links: 1 amine or outer side, 2 acyl side, 3 side chain; linkers in the order of their positions; H or OH if unused. Positions of bridges follow the written chain, without caps; N, C: chain ends. Non-standard residues stand in square brackets, D forms with d. Residues, ends and D or L forms follow the SMILES beside them. Phe(4-COOH) = N[C@@H](Cc1ccc(C(=O)O)cc1)C(=O)O; Phe(3-Cl) = N[C@@H](Cc1cccc(Cl)c1)C(=O)O; Phe(3-Me) = Cc1cccc(C[C@H](N)C(=O)O)c1; γGlu = O=C(O)[C@H](CCC(=O)[*:2])N[*:1]; 2Nal = N[C@@H](Cc1ccc2ccccc2c1)C(=O)O; Tic = O=C(O)[C@@H]1Cc2ccccc2CN1; Cit = NC(=O)NCCC[C@H](N)C(=O)O; Ahp(2) = CCCCC[C@H](N)C(=O)O; NMeNle = CCCC[C@H](NC)C(=O)O; Tle = CC(C)(C)[C@H](N)C(=O)O; NHexGly = CCCCCCNCC(=O)O; Nle = CCCC[C@H](N)C(=O)O; Orn = NCCC[C@H](N)C(=O)O; Aun = NCCCCCCCCCCC(=O)O; Dab = NCC[C@H](N)C(=O)O; AEEA = NCCOCCOCC(=O)O

The assay deals with T1, mouse VISTA (mVISTA) (Mus musculus, UniProt Q9D659).
T1 construct: expressed in transfected cells; host or cells: Human embryonic kidney 293T cells
T1 sequence (Q9D659 33-308): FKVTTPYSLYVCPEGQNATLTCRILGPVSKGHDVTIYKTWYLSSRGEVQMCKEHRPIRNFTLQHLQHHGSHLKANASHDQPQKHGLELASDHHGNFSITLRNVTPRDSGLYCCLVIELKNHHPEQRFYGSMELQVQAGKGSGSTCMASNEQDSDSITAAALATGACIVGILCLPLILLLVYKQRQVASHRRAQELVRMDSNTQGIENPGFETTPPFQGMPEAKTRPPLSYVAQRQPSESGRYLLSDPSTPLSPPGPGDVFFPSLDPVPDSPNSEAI
Briefly: Cell-Based Binding High-Content Assay For mVISTA (HC CBA mVISTA). In outline:
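Read-out: Alexa 647–streptavidin signal imaged on fixed, Hoechst-stained mVISTA-293T cells, with IC50 taken from a four-parameter logistic curve. Compounds competed with 2 nM biotinylated peptide for 30 min at room temperature, tested under both no-wash and wash (1 h compound, media exchange, 1 h) formats.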

[1] abbreviates: 293T cells expressing mouse VISTA, competition with biotinylated peptide (2 nM), read-out: HC CBA mVISTA IC50.
The mark [2] stands for this setting: cell-based binding high-content assay, mVISTA, the 16th table, read-out: HC CBA mVISTA IC50.

Consider `CCCCCCN1CC(=O)N[C@@H](Cc2ccc(O)cc2)C(=O)N[C@@H](Cc2ccc(C(=O)O)cc2)C(=O)N[C@@H](CC(N)=O)C(=O)N[C@@H](CCCNC(=N)N)C(=O)N(C)[C@@H](CCCC)C(=O)N[C@@H](CCCCC)C(=O)N2CCC[C@H]2C(=O)N[C@@H](C(C)(C)C)C(=O)N[C@@H](CC(=O)O)C(=O)N[C@H](C(N)=O)CSCC(=O)N[C@@H](Cc2ccccc2)C(=O)N[C@@H](Cc2c[nH]c3ccccc23)C(=O)N[C@@H](CC(=O)O)C1=O` [compound 1167] ({CH2CO}-FWD[NHexGly]Y[Phe(4-COOH)]NR[NMeNle][Ahp(2)]P[Tle]DC-NH2; thioether N-14), for which, where the note is “read-out: HC CBA mVISTA IC50”, the IC50 was found to be 0.0388 µM.

In the case of `CCCCCCN1CC(=O)N[C@@H](Cc2ccc(O)cc2)C(=O)N[C@@H](CCCC)C(=O)N[C@@H](CC(=O)O)C(=O)N[C@@H](CCCN)C(=O)N[C@@H](CC(C)C)C(=O)N[C@@H](CCCCC)C(=O)N2CCC[C@H]2C(=O)N[C@@H](C(C)C)C(=O)N[C@@H](CC(=O)O)C(=O)N[C@H](C(=O)N[C@@H](CO)C(N)=O)CSCC(=O)N[C@@H](Cc2ccc3ccccc3c2)C(=O)N[C@@H](Cc2c[nH]c3ccccc23)C(=O)N[C@@H](CC(=O)O)C1=O` [compound 1236] ({CH2CO}-[2Nal]WD[NHexGly]Y[Nle]D[Orn]L[Ahp(2)]PVDCS-NH2; thioether N-14), the IC50 (cell-based binding high-content assay, mVISTA, the 15th table, read-out: HC CBA mVISTA IC50) was 0.0277 µM. Consider `CCCCCCN1CC(=O)N[C@@H](Cc2ccc(O)cc2)C(=O)N[C@@H](CC(C)C)C(=O)N[C@@H](CC(N)=O)C(=O)N[C@@H](CCCNC(=N)N)C(=O)N[C@@H](CC(C)C)C(=O)N[C@@H](CCCCC)C(=O)N2CCC[C@H]2C(=O)N[C@@H](C(C)C)C(=O)N[C@@H](CC(N)=O)C(=O)N[C@H](C(=O)NCC(N)=O)CSCC(=O)N[C@@H](Cc2ccccc2)C(=O)N[C@@H](Cc2ccc(O)cc2)C(=O)N[C@@H](CC(=O)O)C1=O` [Example 1027] ({CH2CO}-FYD[NHexGly]YLNRL[Ahp(2)]PVNCG-NH2; thioether N-14), for which, under setting [1], the IC50 was found to be 0.0368 µM.

For the compound `CCCCCCN1CC(=O)N[C@@H](Cc2ccc(O)cc2)C(=O)N[C@@H](CCCC)C(=O)N[C@@H](CC(=O)O)C(=O)N[C@@H](CCCNC(=N)N)C(=O)N[C@@H](CC(C)C)C(=O)N[C@@H](CCCCC)C(=O)N2CCC[C@H]2C(=O)N[C@@H](C(C)C)C(=O)N[C@@H](CCCCC)C(=O)N[C@H](C(=O)NCC(=O)O)CSCC(=O)N[C@@H](Cc2ccccc2)C(=O)N[C@@H](Cc2ccc(O)cc2)C(=O)N[C@@H](CC(=O)O)C1=O` [Example 1021] ({CH2CO}-FYD[NHexGly]Y[Nle]DRL[Ahp(2)]PV[Ahp(2)]CG-OH; thioether N-14), the IC50 under setting [1] is 0.0322 µM.

`CCCCCCN1CC(=O)N[C@@H](Cc2ccc(O)cc2)C(=O)N[C@@H](CCCC)C(=O)N[C@@H](CC(N)=O)C(=O)N[C@@H](CCCNC(=N)N)C(=O)N(C)[C@@H](CCCC)C(=O)N[C@@H](CCCCC)C(=O)N2CCC[C@H]2C(=O)N[C@@H](C(C)(C)C)C(=O)N[C@@H](CO)C(=O)N[C@H](C(=O)NCCOCCOCC(=O)N[C@@H](CCC(=O)NCCOCCOCC(=O)NCCCCCCCCCCC(=O)O)C(=O)O)CSCC(=O)N[C@@H](Cc2cccc(C)c2)C(=O)N[C@@H](Cc2c[nH]c3ccccc23)C(=O)N[C@@H](CC(=O)O)C1=O` [compound 2228] ({CH2CO}-[Phe(3-Me)]WD[NHexGly]Y[Nle]NR[NMeNle][Ahp(2)]P[Tle]SC[AEEA][γGlu][AEEA][Aun]-OH; thioether N-14): the IC50 (read-out: HC CBA mVISTA IC50) was determined as 0.0388 µM. Same read-out and setting: with `CCCCCCN1CC(=O)N[C@@H](Cc2ccc(O)cc2)C(=O)N[C@@H](CCCC)C(=O)N[C@@H](CC(N)=O)C(=O)N[C@@H](CCCNC(=N)N)C(=O)N(C)[C@@H](CCCC)C(=O)N[C@@H](CCCCC)C(=O)N2CCC[C@H]2C(=O)N[C@@H](C(C)C)C(=O)N[C@@H](CC(=O)O)C(=O)N[C@H](C(=O)N[C@@H](CCN)C(=O)N[C@@H](CC(N)=O)C(=O)O)CSCC(=O)N[C@@H](Cc2ccccc2)C(=O)N[C@@H](Cc2c[nH]c3ccccc23)C(=O)N[C@@H](CC(=O)O)C1=O` [compound 1131] ({CH2CO}-FWD[NHexGly]Y[Nle]NR[NMeNle][Ahp(2)]PVDC[Dab]N-OH; thioether N-14) the figure was 0.0231 µM; with `CCCCCCN1CC(=O)N[C@@H](Cc2ccc(O)cc2)C(=O)N[C@@H](CCCC)C(=O)NCC(=O)N[C@@H](CCCNC(=N)N)C(=O)N[C@@H](CC(C)C)C(=O)N[C@@H](CCCCC)C(=O)N2CCC[C@H]2C(=O)N[C@@H](C(C)C)C(=O)N[C@@H](CC(=O)O)C(=O)N[C@H](C(=O)NCCOCCOCC(=O)N[C@@H](CCC(=O)NCCOCCOCC(=O)NCCCCCCCCCCC(=O)O)C(=O)O)CSCC(=O)N[C@@H](Cc2cccc(C)c2)C(=O)N[C@@H](Cc2ccc(O)cc2)C(=O)N[C@@H](CC(=O)O)C1=O` [compound 2216] ({CH2CO}-[Phe(3-Me)]YD[NHexGly]Y[Nle]GRL[Ahp(2)]PVDC[AEEA][γGlu][AEEA][Aun]-OH; thioether N-14), 0.0243 µM; with `CCCCCCN1CC(=O)N[C@@H](Cc2ccc(O)cc2)C(=O)N[C@@H](CC(C)C)C(=O)N[C@@H](CC(N)=O)C(=O)N[C@@H](CCCNC(=N)N)C(=O)N(C)[C@@H](CCCC)C(=O)N[C@@H](CCCCC)C(=O)N2CCC[C@H]2C(=O)N[C@@H](C(C)(C)C)C(=O)N[C@@H](CO)C(=O)N[C@H](C(=O)NCC(N)=O)CSCC(=O)N[C@@H](Cc2ccccc2)C(=O)N[C@@H](Cc2cccc(Cl)c2)C(=O)N[C@@H](CC(=O)O)C1=O` [compound 1339] ({CH2CO}-F[Phe(3-Cl)]D[NHexGly]YLNR[NMeNle][Ahp(2)]P[Tle]SCG-NH2; thioether N-14), 0.0316 µM. Turning to `CCCCCCN1CC(=O)N[C@@H](Cc2ccc(O)cc2)C(=O)N[C@@H](CCCC)C(=O)N[C@@H](CC(N)=O)C(=O)N[C@@H](CCCNC(N)=O)C(=O)N2Cc3ccccc3C[C@H]2C(=O)N[C@@H](CCCCC)C(=O)N2CCC[C@H]2C(=O)N[C@@H](C(C)C)C(=O)N[C@@H](CO)C(=O)N[C@H](C(=O)NCC(N)=O)CSCC(=O)N[C@@H](Cc2ccc3ccccc3c2)C(=O)N[C@@H](Cc2ccc(O)cc2)C(=O)N[C@@H](CC(=O)O)C1=O` [Ex 1306] ({CH2CO}-[2Nal]YD[NHexGly]Y[Nle]N[Cit][Tic][Ahp(2)]PVSCG-NH2; thioether N-14), under setting [2], the IC50 turned out to be 0.0252 µM. Take `CCCCCCN1CC(=O)N[C@@H](Cc2ccc(O)cc2)C(=O)N[C@@H](CC(C)C)C(=O)N[C@@H](CC(N)=O)C(=O)N[C@@H](CCCNC(=N)N)C(=O)N(C)[C@@H](CCCC)C(=O)N[C@@H](CCCCC)C(=O)N2CCC[C@H]2C(=O)N[C@@H](C(C)(C)C)C(=O)N[C@@H](CC(=O)O)C(=O)N[C@H](C(=O)N[C@@H](CCN)C(=O)NCCOCCOCC(=O)N[C@@H](CC(=O)O)C(=O)NCCOCCOCC(=O)NCCCCCCCCCCC(=O)O)CSCC(=O)N[C@@H](Cc2ccccc2)C(=O)N[C@@H](Cc2ccc(O)cc2)C(=O)N[C@@H](CC(=O)O)C1=O` [compound 2085] ({CH2CO}-FYD[NHexGly]YLNR[NMeNle][Ahp(2)]P[Tle]DC[Dab][AEEA]D[AEEA][Aun]-OH; thioether N-14): the IC50 (cell-based binding high-content assay, mVISTA, read-out: HC CBA miPrISTA IC50) came to 0.0417 µM. Turning to `CCCCCCN1CC(=O)N[C@@H](Cc2ccc(O)cc2)C(=O)N[C@@H](CCCC)C(=O)N[C@@H](CC(=O)O)C(=O)N[C@@H](CCCNC(=N)N)C(=O)N(C)[C@@H](CCCC)C(=O)N[C@@H](CCCCC)C(=O)N2CCC[C@H]2C(=O)N[C@@H](C(C)C)C(=O)N[C@@H](CC(=O)O)C(=O)N[C@H](C(=O)N[C@@H](CO)C(N)=O)CSCC(=O)N[C@@H](Cc2ccc3ccccc3c2)C(=O)N[C@@H](Cc2ccc(O)cc2)C(=O)N[C@@H](CC(=O)O)C1=O` [Ex 1318] ({CH2CO}-[2Nal]YD[NHexGly]Y[Nle]DR[NMeNle][Ahp(2)]PVDCS-NH2; thioether N-14), the IC50 under setting [2] was found to be 0.0119 µM. In the case of `CCCCCCN1CC(=O)N[C@@H](Cc2ccc(O)cc2)C(=O)N[C@@H](CCCC)C(=O)N[C@@H](CC(N)=O)C(=O)N[C@@H](CCCN)C(=O)N(C)[C@@H](CCCC)C(=O)N[C@@H](CCCCC)C(=O)N2CCC[C@H]2C(=O)N[C@@H](C(C)(C)C)C(=O)N[C@@H](CC(=O)O)C(=O)N[C@H](C(=O)NCC(N)=O)CSCC(=O)N[C@@H](Cc2ccccc2)C(=O)N[C@@H](Cc2c[nH]c3ccccc23)C(=O)N[C@@H](CC(=O)O)C1=O` [Example 1394] ({CH2CO}-FWD[NHexGly]Y[Nle]N[Orn][NMeNle][Ahp(2)]P[Tle]DCG-NH2; thioether N-14), the IC50 (read-out: HC CBA mVISTA IC50) stood at 0.0348 µM. Turning to `CCCCCCN1CC(=O)N[C@@H](Cc2ccc(O)cc2)C(=O)N[C@@H](CCCC)C(=O)N[C@@H](CC(=O)O)C(=O)N[C@@H](CCCNC(=N)N)C(=O)N(C)[C@@H](CCCC)C(=O)N[C@@H](CCCCC)C(=O)N2CCC[C@H]2C(=O)N[C@@H](C(C)C)C(=O)N[C@@H](CC(=O)O)C(=O)N[C@H](C(=O)N[C@@H](CO)C(N)=O)CSCC(=O)N[C@@H](Cc2cccc(C)c2)C(=O)N[C@@H](Cc2ccc(O)cc2)C(=O)N[C@@H](CC(=O)O)C1=O` [compound 1451] ({CH2CO}-[Phe(3-Me)]YD[NHexGly]Y[Nle]DR[NMeNle][Ahp(2)]PVDCS-NH2; thioether N-14), for the setting “the 19th table, scaffold drawing 22, read-out: HC CBA mVISTA IC50”, the IC50 was found to be 0.0086 µM.
